We go through one molecule from PMC9182086, “Identification of New Non-BBB Permeable Tryptophan Hydroxylase Inhibitors for Treating Obesity and Fatty Liver Disease” (Molecules, 2022).

Where only a bound is given, the exact number is not on record here.

A short description of data set [1]: Liver microsomal stability (human). The class given is in vitro ADME. The conditions noted are these: after 30 min incubation, 1 µM. How it is done:
For the liver microsomal activity, test compounds were incubated with rat and mouse’s liver microsomes, respectively, at a final concentration of 1 µM, in the presence of an NADPH regeneration system in 0.1 M potassium phosphate buffer (pH 7.4) for […] at 37 °C in shaking incubator. The microsomal reaction was terminated by adding four volumes of ice-cold acetonitrile and then centrifuged at 4000 rpm for 20 min. The supernatant was collected and analyzed by a LC-MS/MS system. The percentage of the parent compound remaining was calculated by comparing peak areas.
(Liver microsomes are a subcellular fraction often used to study metabolism.)

In the next data set the test system is HFD-fed C57BL/6J mice. The data set is described as follows: In vivo efficacy test in high-fat diet fed mice. The arrangement: species or system mouse. The conditions noted are these: vs vehicle. Here is the method: All animal study protocols were approved by the Institutional Animal Care and Use Committee at the Korea Advanced Institute of Science and Technology. Male C57BL/6J mice were purchased from SLC (Shizuoka, Japan) and acclimatized for a week. Mice were housed in a humidity and temperature-controlled environment under a 12 h light-dark cycle with ad libitum access to water and food. After acclimatization, male mice were fed a high-fat diet (HFD, 60% fat calories, Research diet; New Brunswick, NJ) and received daily treatment with TPH1 inhibitors. […] Compound 18i was dissolved in 5% dimethyl sulfoxide (DMSO) (Sigma, St. Louis, MO, USA) and 25% β-cyclodextrin (Sigma, St. Louis, MO, USA). Vehicle or compound 18i (100 mg kg^−1) was injected intraperitoneally in mice for 10 days after two weeks of HFD feeding. Both compounds 19 and 21 were prepared in 10% DMSO and 10% Kolliphor EL (Sigma, St. Louis, MO, USA). Vehicle and 100 mg kg^−1 of compound 19 or compound 21 were administered daily by intraperitoneal injection or oral feeding, respectively, concomitant to the initiation of HFD feeding. For analyzing blood glucose concentration, glucose in blood collected from the tail vein was measured after fasting mice for 16 h using a Gluco Dr. Top glucometer (Allemedicus, Anyang, Korea). Body weight was measured daily and mice were sacrificed for harvesting adipose tissue and liver.
Tissue samples were fixed in 10% formalin, embedded in paraffin, and cut into 5 μm thick sections, followed by deparaffinization and rehydration for H&E staining and UCP1 immunohistochemistry. After heat-induced antigen retrieval with a citrate buffer (pH 6.0) for 10 min at 95°C, tissue sections were incubated with BLOXALL Blocking solution (Vector Laboratories, Burlingame, CA, USA) to block endogenous peroxidase, followed by incubation with 2% normal goat serum in phosphate-buffered saline (PBS) for 30 min at room temperature to block nonspecific binding. Sections were incubated overnight with the anti-UCP1 primary antibody diluted 1:200 in 2% normal goat serum in PBS (Abcam, Cambridge, UK) at 4 °C, followed by 30 min incubation with biotinylated anti-rabbit IgG secondary antibody diluted 1:400 in PBS for 30 min at room temperature. After incubation with Vectastain […] reagent (Vector Laboratories) for 30 min, peroxidase activity was visualized with 3,3′-diaminobenzidine substrates (Vector Laboratories). For measuring average adipocyte size, we analyzed three random fields of H&E stained micrographs per adipose tissue sample from two representative mice of each group using AdipoCount software.
Fresh liver tissues were flash frozen in O.C.T. compound (Sakura Finetek, Torrance, CA, USA) and 10 μm cryostat sections were collected on glass slides. Sections were allowed to air-dry for 1 h, rinsed with PBS for 5 min, and washed with distilled water for 5 min. After washing, sections were placed in 30% isopropanol for 5 min, 60% isopropanol for 5 min twice, and then stained in Oil Red O solution (0.5% Oil red O (Sigma, St. Louis, MO, USA) dissolved in 60% isopropanol) for 15 min. The stained sections were rinsed twice with distilled water, mounted, coverslipped, and documented using bright field microscopy.

The target in another data set is T1, TPH1 (Homo sapiens, UniProt P17752).
T1 construct: purchased BPS Bioscience
T1 sequence (P17752 1-444): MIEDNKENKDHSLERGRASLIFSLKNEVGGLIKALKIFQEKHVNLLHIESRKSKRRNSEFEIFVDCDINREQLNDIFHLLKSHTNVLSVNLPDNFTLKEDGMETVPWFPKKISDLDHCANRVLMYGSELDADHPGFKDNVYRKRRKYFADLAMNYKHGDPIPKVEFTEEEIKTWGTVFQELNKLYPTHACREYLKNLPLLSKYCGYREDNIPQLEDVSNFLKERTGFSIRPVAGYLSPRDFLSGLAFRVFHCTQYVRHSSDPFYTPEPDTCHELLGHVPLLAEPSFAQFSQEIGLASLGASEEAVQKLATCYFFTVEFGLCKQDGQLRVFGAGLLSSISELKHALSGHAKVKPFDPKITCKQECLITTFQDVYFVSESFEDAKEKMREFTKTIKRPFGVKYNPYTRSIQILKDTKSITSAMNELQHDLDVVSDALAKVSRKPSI
Put plainly: TPH1 enzyme inhibition, in vitro screening (BPS Bioscience kit, fluorescence). The format is biochemical. How it is done:
Consequently, the core structure of thienopyrimidine tyrosine (derivative 6) was selected as the starting point for the synthesis, evaluating the structure-activity relationships (SAR), and optimization of TPH1 inhibitors. […]
In vitro screening was performed as described previously [PMID: 33417443]. Briefly, TPH1 enzyme activity was measured with a commercially available kit (BPS Bioscience). Compounds were dissolved in DMSO (Sigma). Then, 10 μL of the compound was dispensed into a 96-well microplate, and 40 μL of the TPH1 enzyme solution (320 ng enzyme/reaction) was added. Then, 50 μL of the TPH1 reaction solution was added, and the microplate was sealed with aluminum foil. The microplate was immediately cooled to 4 °C, gently shaken, and incubated for 4 h. After a defined time, 10 μL of the TPH1 quench solution was added. Then, the fluorescence was measured with a Flexstation3 microplate reader at 300 nm for excitation and 360 nm for emission. All experiments were performed in triplicate.

The target of a further data set is T2, hERG channel protein (Homo sapiens, UniProt Q12809).
T2 construct: purchased Thermo Fisher Scientific, Inc
T2 sequence (Q12809 whole entry): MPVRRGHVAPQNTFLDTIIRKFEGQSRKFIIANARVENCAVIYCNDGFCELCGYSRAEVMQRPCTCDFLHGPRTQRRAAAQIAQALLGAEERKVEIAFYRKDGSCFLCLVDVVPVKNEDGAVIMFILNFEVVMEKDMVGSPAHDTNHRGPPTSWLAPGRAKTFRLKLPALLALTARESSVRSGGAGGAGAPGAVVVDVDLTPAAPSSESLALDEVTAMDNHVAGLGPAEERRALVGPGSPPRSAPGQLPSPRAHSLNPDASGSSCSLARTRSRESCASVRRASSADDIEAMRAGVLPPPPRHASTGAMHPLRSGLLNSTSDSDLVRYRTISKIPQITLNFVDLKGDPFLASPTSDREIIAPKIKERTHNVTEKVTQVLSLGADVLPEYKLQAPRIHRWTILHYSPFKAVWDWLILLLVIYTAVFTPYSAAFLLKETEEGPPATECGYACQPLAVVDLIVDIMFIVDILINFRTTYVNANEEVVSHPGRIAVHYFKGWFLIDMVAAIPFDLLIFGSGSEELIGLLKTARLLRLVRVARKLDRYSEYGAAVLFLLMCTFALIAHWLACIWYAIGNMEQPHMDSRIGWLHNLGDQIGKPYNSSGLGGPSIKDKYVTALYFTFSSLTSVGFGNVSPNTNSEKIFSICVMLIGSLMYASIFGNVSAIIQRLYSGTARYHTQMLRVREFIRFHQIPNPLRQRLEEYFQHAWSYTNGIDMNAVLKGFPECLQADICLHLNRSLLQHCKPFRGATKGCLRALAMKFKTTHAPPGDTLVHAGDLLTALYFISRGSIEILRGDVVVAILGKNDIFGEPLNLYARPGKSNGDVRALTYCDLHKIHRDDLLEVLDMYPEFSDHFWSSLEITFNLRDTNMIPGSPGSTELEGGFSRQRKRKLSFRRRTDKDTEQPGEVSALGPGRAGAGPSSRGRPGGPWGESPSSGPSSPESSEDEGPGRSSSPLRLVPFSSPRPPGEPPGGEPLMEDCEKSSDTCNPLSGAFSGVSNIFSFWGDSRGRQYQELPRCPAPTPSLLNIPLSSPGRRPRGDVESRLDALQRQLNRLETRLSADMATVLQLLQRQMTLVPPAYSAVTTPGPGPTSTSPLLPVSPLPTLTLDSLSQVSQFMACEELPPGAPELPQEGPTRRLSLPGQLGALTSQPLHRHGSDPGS
Put plainly: hERG inhibition (Predictor hERG FP binding kit). The settings on record: at 10 uM. How it is done:
The inhibition of binding affinity by small molecules was measured using the PredictorTM hERG FP kit (Thermo Fisher Scientific, Inc., Rockford, IL, USA). The procedure was carried out in accordance with the manufacturer's instructions. Briefly, tracer (PredictorTM hERG tracer red) was prepared with dilution in the binding buffer. The binding assay was conducted in 384 well black flat-bottom microplates (Corning Life Sciences, Lowell, MA, USA) after the serial addition of 5 μL of a 4 nM tracer, 5 μL of test compounds, and a 10 μL membrane fraction containing hERG channel protein. The mixtures were incubated at room temperature for 2 h. The fluorescence polarization (FP) was measured with an excitation filter of 530 nm and an emission filter of 585 nm using a microplate reader (Infinite […]; Tecan, Mannedorf, Switzerland).

Turning to `Cc1ccn(-c2cc(Cl)ccc2[C@@H](Oc2ncnc3c(-c4ccc(C[C@H](N)C(=O)O)cc4)csc23)C(F)(F)F)n1.Cl` [Compound 18i, (S)-2-amino-3-(4-(4-((R)-1-(4-chloro-2-(3-methyl-1H-pyrazol-1-yl)phenyl)-2,2,2-trifluoroethoxy)thieno[3,2-d]pyrimidin-7-yl)phenyl)propanoic acid hydrochloride], in data set [1], the “Liver microsomal stability (human), parent remained” value was 99% parent remained after 30 min incubation. Also, in the data set with HFD-fed C57BL/6J mice (100 mg/kg ip daily for 10 days after two weeks of HFD), the Body weight gain result is “blunted weight gain”. Moreover, the “eWAT and BAT adipocyte size (histology)” value in the data set with HFD-fed C57BL/6J mice (100 mg/kg ip daily for 10 days) was “significant reduction”. Also, in the data set on HFD-fed C57BL/6J mice (16 h fasting), the “Fasting blood glucose levels” value was “lower fasting blood glucose levels”. The midpoint of inhibition against TPH1, the IC50, lay at 37 nM. This molecule also registered an inhibition at 1 µM at TPH1 (1 µM compound) of 95%. For the same molecule, the Herg inhibition on hERG channel protein is on record as <1% inhibition at 10 uM.

As usually defined, the IC50 is the concentration needed to halve the response being measured. Lower therefore signals greater potency. The term inhibition denotes the drop in the measured response relative to a control, in per cent. Read a low inhibition as little suppression.
